This is an account of results in patent publication USRE37781E1, “Substituted cyclic carbonyls and derivatives thereof useful as retroviral protease inhibitors” (DuPont Pharmaceuticals Company, priority 1991, dated 2002).

In brackets after ≈: the same amount, converted by molar mass.

The first experiment has as its target T1, HIV protease (Human immunodeficiency virus type 1 group M subtype B, UniProt P04585).
T1 construct: plasmid containing HIV protease under the control of an inducible T7 promoter; made in house; host or cells: E. coli (inclusion bodies, T7 promoter)
Kind of experiment: biochemical. Also on record: species or system HIV-1. The conditions noted are these: Ki. The protocol:
HIV Protease Inhibition Assay—Spectroscopic Method
Inclusion bodies were solubilized in 8M urea, 50 mM tris pH 8.0. Protease activity was recovered by dilution 20-fold into buffer containing 50 mM sodium acetate pH 5.5, 1 mM EDTA, 10% glycerol and 5% ethylene glycol. Enzyme was used at a final concentration of 1.0-10 ug/ml.
Stock solutions of 10 mM were prepared in DMSO.
All further dilutions were done in DMSO.
As a reminder, the Ki is the equilibrium dissociation constant of an inhibitor or competing ligand from its target. `N#CN=C1N(Cc2ccc(C#N)cc2)C(Cc2ccccc2)C(O)C(O)C(Cc2ccccc2)N1Cc1ccc(C#N)cc1` (centres unmarked) [Example 1CG]: the inhibitory constant (Ki) fell in the range of 10 to 1000 nM.

As to `N#CN=C1N(Cc2cccc(C=O)c2)C(Cc2ccccc2)C(O)C(O)C(Cc2ccccc2)N1Cc1cccc(C=O)c1` (centres unmarked) [Example 1CP], the Ki was < 10 nM.

As for `O=C1N(Cc2ccccc2)C(Cc2ccccc2)C(O)C(O)C(Cc2ccccc2)N1Cc1ccccc1` (centres unmarked) [Example 1I], the Ki was > 1000 nM.

Take `CCCN1C(=O)N(CCC)C(Cc2ccccc2)C(O)C(O)C1Cc1ccccc1` (centres unmarked) [Example 1V]: the inhibition constant (Ki) is < 10 nM.

Turning to `C=CCN1C(=O)N(CCCC)C(Cc2ccccc2)C2OC(=O)OC2C1Cc1ccccc1` (centres unmarked) [Example 7E], the Ki fell in the range of 10 to 1000 nM.

As to `O=C1OC2C(O1)C(Cc1ccccc1)N(CC1CC1)C(=O)N(CC1CC1)C2Cc1ccccc1` (centres unmarked) [Example 7G], the inhibitory constant (Ki) was 10 to 1000 nM.

Take `O=C1OC2C(O1)C(Cc1ccccc1)N(Cc1ccc3ccccc3c1)C(=O)N(Cc1ccc3ccccc3c1)C2Cc1ccccc1` (centres unmarked) [Example 7L]: the inhibition constant (Ki) is 10 to 1000 nM.

`N#Cc1cccc(CN2C(=O)N(Cc3cccc(C#N)c3)[C@H](Cc3ccccc3)[C@H](O)C2CCc2ccccc2)c1` (some centres unmarked) [Example 8AN]: the Ki was > 1000 nM.

`O=C1N(Cc2cccc(O)c2)C(C(F)Cc2ccccc2)[C@@H](O)[C@@H](Cc2ccccc2)N1Cc1cccc(O)c1` (some centres unmarked) [Example 8F] displayed an inhibition constant (Ki) of 10 to 1000 nM.

The same experiment, now with this note: Ki, Table 1a.
The compound `C=CCN1C(=O)N(CC=C)[C@H](Cc2ccccc2)[C@@H](O)[C@H](O)[C@H]1Cc1ccccc1` [Example 1G] displayed a Ki of 10 to 1000 nM.

Staying with this experiment, now noted: Table 1a; read-out: Ki.
In the case of `C=CCN1C(=O)N(CC=C)C(Cc2ccccc2)C(O)C(O)C1Cc1ccccc1` (centres unmarked) [Example 1H], the inhibition constant (Ki) is > 1000 nM.

`COCCOCCN1C(=O)N(CCOCCOC)C(Cc2ccccc2)C(O)C(O)C1Cc1ccccc1` (centres unmarked) [Example 1J]: the inhibition constant Ki was > 1000 nM.

Consider `CC(C)=CCCC(C)=CCN1C(=O)N(CC=C(C)CCC=C(C)C)C(Cc2ccccc2)C(O)C(O)C1Cc1ccccc1` (centres unmarked) [Example 1K], for which the Ki was > 1000 nM.

For `CC(C)C(NCCN1C(=O)N(CCO)C(Cc2ccccc2)C(O)C(O)C1Cc1ccccc1)C(=O)OCc1ccccc1` (centres unmarked) [Example 1L], the Ki is > 1000 nM.

Take `CC(C)CCCC(C)CCN1C(=O)N(CCC(C)CCCC(C)C)C(Cc2ccccc2)C(O)C(O)C1Cc1ccccc1` (centres unmarked) [Example 1N]: the inhibition constant Ki was in the range of 10 to 1000 nM.

Turning to `CC(C)CCCC(C)CCN1C(=O)NC(Cc2ccccc2)C(O)C(O)C1Cc1ccccc1` (centres unmarked) [Example 1Q], the inhibitory constant (Ki) lay in the range of 10 to 1000 nM.

Take `COCCOCCOCCN1C(=O)NC(Cc2ccccc2)C(O)C(O)C1Cc1ccccc1` (centres unmarked) [Example 1R]: the inhibitory constant (Ki) is > 1000 nM.

Regarding `CC(C)C(NCCN1C(=O)N(CCO)C(Cc2ccccc2)C(O)C(O)C1Cc1ccccc1)C(=O)OCc1ccccc1` (centres unmarked) [Example 1T], the Ki was in the range of 10 to 1000 nM.

Regarding `CC(C)C(NCCN1C(=O)N(CCNC(C(=O)OCc2ccccc2)C(C)C)C(Cc2ccccc2)C(O)C(O)C1Cc1ccccc1)C(=O)OCc1ccccc1` (centres unmarked) [Example 1U], the Ki is > 1000 nM.

Staying with this experiment, now noted: Table 1e; read-out: Ki.
`C=CCN1C(=O)N(CC=C)[C@H](Cc2ccccc2)[C@H](O)C1C(F)Cc1ccccc1` (some centres unmarked) [Example 7W]: the inhibitory constant (Ki) was 10 to 1000 nM.

For the compound `[N-]=[N+]=NC(Cc1ccccc1)C1C(O)C(Cc2ccccc2)N(Cc2ccc3ccccc3c2)C(=O)N1Cc1ccc2ccccc2c1` (centres unmarked) [Example 7Y], the Ki was 10 to 1000 nM.

On to `O=C1N(CC2CC2)C(C(O)Cc2ccccc2)[C@@H](O)[C@@H](Cc2ccccc2)N1CC1CC1` (some centres unmarked) [Example 7Z], for which the inhibitory constant (Ki) fell in the range of 10 to 1000 nM.

Turning to `C=CCN1C(=O)N(CC=C)[C@H](Cc2ccccc2)[C@H](O)[C@H]1[C@H](O)Cc1ccccc1` [Example 8AA], the Ki was 10 to 1000 nM.

On to `O=C1N(Cc2ccc(CO)cc2)[C@H](CCc2ccccc2)C[C@@H](Cc2ccccc2)N1Cc1ccc(CO)cc1` [Example 8AC], for which the Ki was in the range of 10 to 1000 nM.

The test system of a further experiment is HIV-1 (RF) in MT-2 cells. Kind of experiment: microbe, parasite or virus in culture. It counts as cell-based. The note with it: Human immunodeficiency virus 1, MT2, 24 h, Table 1d, upper part; read-out: IC90. Put shortly: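 Read-out: gag and pol viral RNA captured by 5′-biotinylated oligonucleotides on streptavidin-coated wells, detected with alkaline phosphatase-linked reporter oligonucleotides, calibrated against BH10 in vitro transcripts. Virus stocks (RF, MN, IIIB) come from H9 cultures; MT-2 host cells kept in RPMI 1640, 5% FCS.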
As a reminder, the IC90 is the point of the concentration-response curve where the effect stands at 90%. As for `C=CCN1C(=O)N(CCCC)C(Cc2ccccc2)C2OC(=O)OC2C1Cc1ccccc1` (centres unmarked) [Example 7E], the IC90 is < 10 µg/mL.

With `O=C1OC2C(O1)C(Cc1ccccc1)N(CC1CC1)C(=O)N(CC1CC1)C2Cc1ccccc1` (centres unmarked) [Example 7G], the IC90 is < 10 µg/mL.

For `O=C1OC2C(O1)C(Cc1ccccc1)N(Cc1ccc3ccccc3c1)C(=O)N(Cc1ccc3ccccc3c1)C2Cc1ccccc1` (centres unmarked) [Example 7L], the concentration for an effect of 90% (IC90) is > 100 µg/mL.

Still in this experiment, the particulars now being: Human immunodeficiency virus 1, MT2, Table 1c; read-out: IC90.
In the case of `N#CN=C1N(Cc2ccc(C#N)cc2)C(Cc2ccccc2)C(O)C(O)C(Cc2ccccc2)N1Cc1ccc(C#N)cc1` (centres unmarked) [Example 1CG], the IC90 was < 10 µg/mL.

As to `N#CN=C1N(Cc2cccc(C=O)c2)C(Cc2ccccc2)C(O)C(O)C(Cc2ccccc2)N1Cc1cccc(C=O)c1` (centres unmarked) [Example 1CP], the IC90 was < 10 µg/mL.

Still in this experiment, the particulars now being: Human immunodeficiency virus 1, MT2, Table 1e; read-out: IC90.
As to `C=CCN1C(=O)N(CC=C)[C@H](Cc2ccccc2)[C@H](O)C1C(F)Cc1ccccc1` (some centres unmarked) [Example 7W], the IC90 lay in the range of 10 to 100 µg/mL (≈ 24.5 to 245 µM).

As to `[N-]=[N+]=NC(Cc1ccccc1)C1C(O)C(Cc2ccccc2)N(Cc2ccc3ccccc3c2)C(=O)N1Cc1ccc2ccccc2c1` (centres unmarked) [Example 7Y], the IC90 is > 100 µg/mL.

Turning to `O=C1N(CC2CC2)C(C(O)Cc2ccccc2)[C@@H](O)[C@@H](Cc2ccccc2)N1CC1CC1` (some centres unmarked) [Example 7Z], the 90% effect concentration (IC90) was < 10 µg/mL.

In the case of `O=C1N(Cc2ccc(CO)cc2)[C@H](CCc2ccccc2)C[C@@H](Cc2ccccc2)N1Cc1ccc(CO)cc1` [Example 8AC], the IC90 is < 10 µg/mL.

`O=C1N(Cc2cccc(O)c2)C(C(F)Cc2ccccc2)[C@@H](O)[C@@H](Cc2ccccc2)N1Cc1cccc(O)c1` (some centres unmarked) [Example 8F]: the 90% effect concentration (IC90) is < 10 µg/mL.

Still in this experiment, the particulars now being: Table 1e.
For `N#Cc1cccc(CN2C(=O)N(Cc3cccc(C#N)c3)[C@H](Cc3ccccc3)[C@H](O)C2CCc2ccccc2)c1` (some centres unmarked) [Example 8AN], the IC90 entry is “+ (+=>100 μg/mL)”.
